Experimental data: patent US4803209A, “Substituted 2,3-diphenyl-1,2-dihydroquinoxalines” (International Minerals & Chemical Corp., priority 1987, dated 1989)
Read-outs that look alike come from different tables or passages of the source.

Key:
[1] = tested on: Clostridium perfringens (Cp); assay type: cell-based; details: Anaerobic, 6 h, 37° C.
[2] = tested on: Streptococcus sp. 1 X C15 (Strep C15); assay type: cell-based
anaerobic bacteria = assay type: cell-based
[3] = Growth promotion and feed utilization in chicks; assay type: in vivo, chicks (broiler cockerels)
[4] = tested on: Eimeria tenella Eli Lilly Strain 65 (Lilly 65); assay: In vitro anticoccidial test in chick kidney cell monolayers; assay type: cell-based; details: 72 h, 3 days, read-out: % Inhibition of Coccidia
[5] = tested on: Streptococcus sp. 1 X A7 (Strep A7); assay type: cell-based
[6] = tested on: antibiotic resistant E. coli (E.C. 324); assay type: cell-based; details: Gram Neg., 6 h, 37° C., aerobic
kidney cell monolayer = assay: Toxicity to cultured kidney cell monolayer in the in vitro anticoccidial test; assay type: cell-based, chick; design: key: T: toxic (inhibited kidney cell monolayer formation); details: 3 days
Method: For in vitro screen tests, Hubbard X Hubbard chicks were maintained on drug-free starter diets in brooders in a coccidia-free room. Water was available ad libitum. At 2-3 weeks of age, 3-6 chicks were sacrificed by decapitation and bled. All tissue culture preparation, propagation and test steps were carried out using strict aseptic techniques. Kidney cells next were combined in a single sterile tube and evenly dispersed by agitation. An appropriate dilution (usually 1/10X to 1/25X) was counted microscopically in a hemocytometer and the cell suspension diluted in 500 ml sterile bottles to 200,000 to 250,000 cells/ml of growth medium. Multiwell tissue culture plates (Falcon No. 3008 or Costar No. 3524) were employed in all in vitro screen tests. Immediately after preparation of the kidney cell suspension, each of the 24 wells of 20 to 60 multiwell plates was inoculated with 1 ml of cells using a sterile syringe-type continuous pipettor (Cornwall). Plates then were incubated at once in a 5% CO2 incubator at 39° C. and ≥80% humidity. At about 24 hours one plate was removed and briefly examined for monolayer initiation under phase microscopy at 200X. At 40-48 hours monolayer growth was well initiated and satisfactory for initiation of drug tests. At this time attached cells were spreading and putting out arm-like projections in many areas of each well. The medium on plates which would not be used for drug tests at this time was replaced with prewarmed EBSS plus antibiotics, and these plates were returned to the incubator until time of use 24 to 48 hours later. The latter step was incorporated to remove debris and toxins from the young cell monolayers and also delay monolayer growth until initiation of drug tests. For each test compound an estimated 10 mg of test compound was placed in a 15×150 mm disposable screw-cap test tube (Belco No. 2009-16150). In a typical test employing 25 multiwell plates, tubes containing test compounds were set up and four drops of dimethylsulfoxide (DMSO) were added to each tube. Next 10 ml sterile distilled water was added to each tube and the tubes were capped tightly and mixed by agitation. Primary compound solutions containing about 1000 ppm test compound were serially diluted in disposable tubes (Falcon No. 2051) containing 1/2 strength growth medium, to yield the concentrations shown in Table 3 below. Sterile 1 cc disposable syringes (Tomac) were employed both for making dilutions and adding test compounds to plates. In setting up drug tests, five multiwell plates containing 48-96 hr monolayers were removed as a group from the incubator. The medium was quickly poured off one multiwell plate and 0.5 ml of the lowest dilution of test compound was added to each of two wells in the first column of wells, and an equal volume of a higher dilution of the same substance was added to the remaining two wells in the same column. This procedure was repeated with the next test substance using the wells in the second column on the plate. Dilutions of the remaining test substances were placed in corresponding columns of the plate. After compounds had been added to the first set of five plates, 0.5 ml of a 2×10^5 /ml suspension of sporozoites was added to each well of each plate using a sterile continuous pipettor. To minimize the effects of exposing growth medium to the atmosphere, all additions were made rapidly and inoculated plates were immediately returned to the incubator. Three days after drug and sporozoite addition, plates were removed a few at a time from the incubator for enumeration of parasites. […] The medium was quickly discarded and counts made under phase microscopy at 200X of the total numbers of schizonts and […] per field in each of five random fields. The average number of parasites per field was then calculated. The results of the in vitro anticoccidial tests, which are given in Table 3 below, show the compounds to have toxic effects upon cultured cells.

[7] = tested on: Bacteroides fragilis (Bf); assay: Antimicrobial growth inhibition, Bf; assay type: cell-based; details: Anaerobic, 6 h, 37° C.
[8] = tested on: E. coli strain 046 (E.C. 046); assay type: cell-based
Salmonella typhimurium = assay type: cell-based
[9] = experiment set 5, 75 ppm in feed, 8 weeks

In the case of `Oc1ccc(Cl)cc1C1=Nc2cc(Cl)c(Cl)cc2NC1c1cc(Cl)ccc1O` (stereo not drawn) [Example 1, 2,3-Di(2-hydroxy-5-chlorophenyl)-6-7-dichloro-1,2-dihydroquinoxaline], the “Growth of Cp in the presence of the test compound” value ([1]; 6.4 ppm) is reported as “-”, the “Growth of Cp in the presence of the test compound” value ([1]; 64 ppm) is reported as “-” and the “Growth of Strep C15 in the presence of the test compound” value ([2]; 6.4 ppm) is reported as “+”. For the same compound, the “Growth of Strep C15 in the presence of the test compound” value ([2]; 64 ppm) was “+”, the “activity against anaerobic bacteria” value (anaerobic bacteria) was “possessed activity against both anaerobic microorganisms” and the “feed efficiency (% better or worse than control)” value [3, 9] was 13%. For the same compound, the “weight gain (% better or worse than control)” value [3, 9] was 6%, the “growth promotion / feed efficiency” value ([3]; in vivo) was “found to improve both weight gain and feed efficiency” and the inhibition at 0.001 ppm [4] was 53%. It also gave an inhibition at 0.01 ppm [4] of 67%, an inhibition at 0.1 ppm [4] of 61% and an inhibition at 1 ppm [4] of 98%. For the same compound, the “Growth of Strep A7 in the presence of the test compound” value ([5]; 6.4 ppm) was “+”, the “Growth of Strep A7 in the presence of the test compound” value ([5]; 64 ppm) was “+” and the “Growth of E.C. 324 in the presence of the test compound” value ([6]; 6.4 ppm) was “+”. For the same compound, the “Growth of E.C. 324 in the presence of the test compound” value ([6]; 64 ppm) was “+”, the “% Inhibition of Coccidia: T = toxic” value (kidney cell monolayer; 10.0 ppm) was “T” and the “% Inhibition of Coccidia: T = toxic” value (kidney cell monolayer; 100 ppm) was “T”. The “Growth of Bf in the presence of the test compound” value ([7]; 6.4 ppm) was “-”, the “Growth of Bf in the presence of the test compound” value ([7]; 64 ppm) was “-” and the “Growth of E.C. 046 in the presence of the test compound” value ([8]; 6.4 ppm) was “+”. The “Growth of E.C. 046 in the presence of the test compound” value ([8]; 64 ppm) was “+”, the “Growth of S.T. in the presence of the test compound” value (Salmonella typhimurium; 6.4 ppm) was “+” and the “Growth of S.T. in the presence of the test compound” value (Salmonella typhimurium; 64 ppm) was “+”.
`Oc1ccccc1C1=Nc2cc(Cl)c(Cl)cc2NC1c1ccccc1O` (stereo not drawn) [Example 2, 2,3-di(2-hydroxyphenyl)-6,7-dichloro-1,2-dihydroquinoxaline] showed an inhibition at 0.001 ppm [4] of 42%, an inhibition at 0.01 ppm [4] of 71% and an inhibition at 0.1 ppm [4] of 89%. For the same compound, the inhibition at 1 ppm [4] was 100%, the “% Inhibition of Coccidia: T = toxic” value (kidney cell monolayer; 10.0 ppm) was “T” and the “% Inhibition of Coccidia: T = toxic” value (kidney cell monolayer; 100 ppm) was “T”.
Compound `Oc1ccc(Cl)cc1C1=Nc2ccccc2NC1c1cc(Cl)ccc1O` (stereo not drawn) [Example 5, 2,3-di(2-hydroxy-5-chlorophenyl)-1,2-dihydroquinoxaline] has an inhibition at 0.001 ppm [4] of 1%, an inhibition at 0.01 ppm [4] of 0% and an inhibition at 0.1 ppm [4] of 6%. For the same compound, the inhibition at 1 ppm [4] was 31%, the inhibition at 10 ppm ([4]; 10.0 ppm) was 100% and the “% Inhibition of Coccidia: T = toxic” value (kidney cell monolayer; 100 ppm) was “T”.
In the case of `COc1ccc(C2=Nc3cc(C)c(C)cc3NC2c2ccc(OC)cc2O)c(O)c1` (stereo not drawn) [Example 8, 2,3-di(2-hydroxy-4-methoxyphenyl)-6,7-dimethyl-1,2-dihydroquinoxaline], the inhibition at 0.001 ppm [4] is reported as 0%, the inhibition at 0.01 ppm [4] is reported as 9% and the inhibition at 0.1 ppm [4] is reported as 12%. For the same compound, the inhibition at 1 ppm [4] was 99%, the “% Inhibition of Coccidia: T = toxic” value (kidney cell monolayer; 10.0 ppm) was “T” and the “% Inhibition of Coccidia: T = toxic” value (kidney cell monolayer; 100 ppm) was “T”.
